According to US10028992B2, “Methods of treating muscular dystrophy” (BOARD OF REGENTS OF THE NEVADA SYSTEM OF HIGHER EDUCATION …, priority 2012, dated 2018):

Test system: α7 integrin promoter
Experiment: muscle cell-based assay: α7βgal+/− myoblasts/myotubes, LacZ reporter, β-galactosidase cleavage of FDG
Parameters: species or system mouse; Results in α7+/− β-galactosidase assay: scale not given here
Conditions: Myoblasts
Outline: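 Fluorescein generated from FDG by β-galactosidase reports α7 integrin promoter activity in differentiated myoblasts from α7+/− LacZ knock-in pups. Screening hits then went to dose-response, western blotting and a myostatin counterscreen.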

| Structure (SMILES) | Results in α7+/− β-galactosidase assay (0.5 uM) | Results in α7+/− β-galactosidase assay (1 uM) | Results in α7+/− β-galactosidase assay (5 uM) | Results in α7+/− β-galactosidase assay (10 uM) | Results in α7+/− β-galactosidase assay (20 uM) | Results in α7+/− β-galactosidase assay (40 uM) |
| --- | --- | --- | --- | --- | --- | --- |
| O=c1[nH]c(CN2CCCCC2)cc2c1C1(CCCCC1)Cc1ccccc1-2 [drawing 565] | 0.03731 | −0.01272 | −0.01947 | −0.1479 | 0.1068 | −0.1465 |
| COc1ccccc1NS(=O)(=O)c1cc(NC(=O)c2ccc(Cl)nc2)ccc1N1CCCC1 [drawing 566] | 0.1257 | 0.1127 | 0.06786 | 0.0849 | −0.1817 | −0.2311 |
| N#C/C(=C1/C(=O)Nc2ccc(Br)cc21)c1ccccn1 [drawing 567] | 0.2021 | 0.000395 | −0.2923 | −0.4689 | −0.5478 | −0.6637 |
| N#CC1=C2SCN(c3ccccc3)CN2C(=O)CC1c1cccs1 (stereo not drawn) [drawing 568] | −0.02125 | −0.07703 | −0.07651 | −0.05714 | 0.1121 | −0.08344 |
| COc1ccc(C(=O)/C=C2\C(=O)Nc3ccccc32)cc1 [drawing 569] | 0.002308 | −0.1094 | −0.5146 | −0.6859 | −0.703 | −0.8556 |
| O=C(O)c1csc(-c2cccs2)n1 [drawing 570] | 0.0287 | −0.01442 | 0.8119 | −0.08869 | 0.1022 | −0.04959 |
| COc1cccc(C(=O)COc2ccc3ccc(=O)oc3c2)c1 [drawing 571] | 0.09281 | 0.06053 | −0.01266 | 0.02813 | 0.004164 | −0.04457 |
| CCCS(=O)(=O)c1nc(S(=O)(=O)c2ccc(C)cc2)c(N2CCCC2)s1 [drawing 572] | 0.06463 | 0.01847 | −0.2102 | −0.5196 | −0.8221 | −0.878 |
| OC(c1nc2cc(F)ccc2[nH]1)C(O)c1nc2cc(F)ccc2[nH]1 (stereo not drawn) [drawing 573] | 0.08093 | 0.2145 | −0.08597 | −0.1055 | 0.001076 | −0.1048 |
| COc1ccc(OC)c(NC(=O)CN2CCC(NC(=O)c3ccccc3C)CC2)c1 [drawing 574] | 0.0132 | 0.06975 | 0.04855 | −0.0931 | 0.06823 | 0.04785 |
| O=C(CCc1ccccc1)c1nnc(-c2ccccc2)o1 [drawing 575] | 0.0917 | 0.1045 | 0.03485 | −0.04687 | −0.02713 | −0.06265 |
| COc1ccc(/N=N/c2ccc(N)nc2N)cc1 [drawing 576] | 0.2183 | 0.2858 | 0.06976 | 0.01151 | 0.0406 | −0.04372 |
| N=C(NOC(=O)c1cccc(C(F)(F)F)c1)c1cnccn1 [drawing 577] | −0.05513 | 0.02871 | −0.00636 | −0.02595 | 0.07472 | 0.1346 |
| CCOc1ccc2nc(Cl)sc2c1 [drawing 578] | −0.06751 | 0.05388 | 0.04367 | −0.03134 | 0.1725 | 0.1336 |
